The results in this text go back to patent publication US20230339952A1, “MACROCYCLIC HETEROCYCLES AND USES THEREOF” (Kumquat Biosciences Inc., priority 2022, published 2023).

In one assay the target is SOS1 (Homo sapiens (Human), UniProt Q07889). Nature of the assay: Ras-SOS interaction assay (HTRF), K-Ras G13D utilized. In kind it is binding. As to conditions: K-Ras G13D. A general note: In TR-FRET formats the signal depends on donor and acceptor labels being close together.
Assay [1] deals with NCI-H1975 (ATCC CRL-5908) cell line comprising an EGFR T790M L858R double mutation. The assay is described as follows: EGFR-SOS cellular inhibition assay (CellTiter-Glo cell proliferation). As to conditions: Homo sapiens. In kind it is cell-based. On the technique in general: ATP-based viability assays read luminescence as a measure of living cells.
Experimental: A CellTiter-Glo (CTG) luminescent based assay (Promega) is used to assess growth of the cells, as a measurement of the ability of the compounds herein to inhibit EGFR signaling in the cells. […] The day after plating, cells are treated with a dilution series (e.g., a 9 point 3-fold dilution series) of the compounds herein (e.g., approximately 125 μL final volume per well).
Setting [2] is: 120 h, NCI-H1975 cell proliferation, approximately 5 days, read-out: H1975 IC50.
[3] abbreviates: read-out: IC50 value against SOS1.
Where [4] appears, read: NCI-H1975, EGFR T790M L858R double mutation, read-out: IC50 in inhibiting growth of NCI-H1975 cell line.

Like-named read-outs stand apart in the source and are kept apart here. Some results are limits rather than exact numbers.

SOS1, sequence (Q07889 564-1049): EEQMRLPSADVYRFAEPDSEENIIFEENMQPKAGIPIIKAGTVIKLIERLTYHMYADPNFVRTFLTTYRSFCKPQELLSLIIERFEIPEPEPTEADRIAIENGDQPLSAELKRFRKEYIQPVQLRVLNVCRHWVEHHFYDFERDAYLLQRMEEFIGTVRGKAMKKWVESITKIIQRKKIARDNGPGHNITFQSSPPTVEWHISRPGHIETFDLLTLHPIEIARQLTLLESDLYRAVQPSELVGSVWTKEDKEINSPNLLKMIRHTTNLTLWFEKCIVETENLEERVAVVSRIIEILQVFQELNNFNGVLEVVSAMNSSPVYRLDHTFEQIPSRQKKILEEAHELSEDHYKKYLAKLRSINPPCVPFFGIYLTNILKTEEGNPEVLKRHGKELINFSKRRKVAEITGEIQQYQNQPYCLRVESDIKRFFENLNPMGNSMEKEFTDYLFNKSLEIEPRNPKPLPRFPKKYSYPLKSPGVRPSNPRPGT

The IC50 is the concentration needed to halve the response being measured. Regarding `C[C@H]1Nc2ncnc3c2cc(C2(C#N)CCS(=O)(=O)CC2)c(=O)n3CCCOCCCN2CCC(CC2)CC(F)(F)c2cccc1c2` [Compound 189, 4-((3R)-5,5-difluoro-3-methyl-1^7-oxo-1^7,1^8-dihydro-11-oxa-2-aza-1(4,8)-pyrido[2,3-d]pyrimidina-7(4,1)-piperidina-4(1,3)-benzenacyclotetradecaphane-1^6-yl)tetrahydro-2H-thiopyran-4-carbonitrile 1,1-dioxide], the results for the IC50 (on SOS1 (read-out: SOS1 IC50); in assay [1] (setting [2])) were less than 0.1 µM and less than 1 µM, respectively.

As for `C[C@H]1Nc2ncnc3c2cc(C2CCS(=O)(=O)CC2)c(=O)n3CCCOCCCCN2CCC(CC2)C(F)(F)c2cccc1c2` [Compound 62, (4R)-66-(1,1-dioxidotetrahydro-2H-thiopyran-4-yl)-2,2-difluoro-4-methyl-67,68-dihydro-10-oxa-5-aza-6(4,8)-pyrido[2,3-d]pyrimidina-1(4,1)-piperidina-3(1,3)-benzenacyclotetradecaphan-67-one], the IC50 at SOS1 (read-out: SOS1 IC50) was less than 0.1 µM; in assay [1] (setting [2]), less than 1 µM.

For `Cc1nc2c3cc(C4(C#N)CC4)c(=O)n(c3n1)CCCC/C=C\CN1CCC(CC1)C(F)(F)c1cccc(c1F)[C@@H](C)N2` [Compound 168, 1-((4R,Z)-3^2,2,2-trifluoro-6^2,4-dimethyl-6^7-oxo-6^7,6^8-dihydro-5-aza-6(4,8)-pyrido[2,3-d]pyrimidina-1(4,1)-piperidina-3(1,3)-benzenacyclotridecaphan-11-en-6^6-yl)cyclopropane-1-carbonitrile], the figures for the IC50 (at SOS1 (setting [3]); at SOS1 (read-out: SOS1 IC50); in assay [1] (setting [2])) were less than 0.05 µM, less than 0.1 µM and 1 to 10 µM, respectively.

In the case of `C[C@H]1Nc2ncnc3c2cc(N2CCS(=O)(=O)CC2)c(=O)n3CCCCCCCN2CC(C2)CC(F)(F)c2cccc1c2` [Compound 211, (3R)-1^6-(1,1-dioxidothiomorpholino)-5,5-difluoro-3-methyl-1^7,1^8-dihydro-2-aza-1(4,8)-pyrido[2,3-d]pyrimidina-7(3,1)-azetidina-4(1,3)-benzenacyclotetradecaphan-1^7-one], the IC50 on SOS1 (setting [3]) was less than 0.05 µM; on SOS1 (read-out: SOS1 IC50) it was less than 0.1 µM; in assay [1] (setting [2]), less than 1 µM; in assay [1] (setting [4]), less than 0.5 µM.

Consider `CC1CCCCCCn2c(=O)c(C3(C#N)CC3)cc3c(ncnc32)N[C@H](C)c2cccc(c2F)C(F)(F)C2CCN1CC2` (stereo partly drawn) [Compound 34, 1-((4R)-3^2,2,2-trifluoro-4,13-dimethyl-6^7-oxo-6^7,6^8-dihydro-5-aza-6(4,8)-pyrido[2,3-d]pyrimidina-1(4,1)-piperidina-3(1,3)-benzenacyclotridecaphane-6^6-yl)cyclopropane-1-carbonitrile], for which the IC50 at SOS1 (read-out: SOS1 IC50) is less than 0.1 µM; in assay [1] (setting [2]), less than 1 µM.

Regarding `CC(C)N1CCN(c2cc3c4ncnc3n(c2=O)CCCCCCCN2CCC(CC2)C(F)(F)c2cccc(c2)[C@@H](C)N4)CC1` [Compound 123, (4R)-2,2-difluoro-6^6-(4-isopropylpiperazin-1-yl)-4-methyl-6^7,6^8-dihydro-5-aza-6(4,8)-pyrido[2,3-d]pyrimidina-1(4,1)-piperidina-3(1,3)-benzenacyclotridecaphan-6^7-one], the IC50 on SOS1 (read-out: SOS1 IC50) was less than 0.1 µM; in assay [1] (setting [2]), less than 1 µM.

`C[C@H]1Nc2ncnc3c2cc(C2CCS(=O)(=O)CC2)c(=O)n3CCCCCN2CCC(CC2)CCC(F)(F)c2cccc1c2F` [Compound 151, (3R)-1^6-(1,1-dioxidotetrahydro-2H-thiopyran-4-yl)-4^2,5,5-trifluoro-3-methyl-1^7,1^8-dihydro-2-aza-1(4,8)-pyrido[2,3-d]pyrimidina-8(4,1)-piperidina-4(1,3)-benzenacyclotridecaphan-1^7-one]: the figures for the IC50 (at SOS1 (read-out: SOS1 IC50); in assay [1] (setting [2])) were less than 0.1 µM and less than 1 µM, respectively.

In the case of `CC(C)N1CCN(c2cc3c4ncnc3n(c2=O)CCCCCN2CCC(CC2)CCC(F)(F)c2cccc(c2)[C@@H](C)N4)CC1` [Compound 154, (3R)-5,5-difluoro-1^6-(4-isopropylpiperazin-1-yl)-3-methyl-1^7,1^8-dihydro-2-aza-1(4,8)-pyrido[2,3-d]pyrimidina-8(4,1)-piperidina-4(1,3)-benzenacyclotridecaphan-1^7-one], the IC50 is less than 0.1 µM at SOS1 (read-out: SOS1 IC50) and less than 1 µM in assay [1] (setting [2]).

Take `C[C@H]1Nc2ncnc3nc(c(C4(C#N)CC4)cc23)OCCCCCCN2CCC(CC2)C(F)(F)c2cccc1c2` [Compound 121, (R)-1-(2,2-difluoro-4-methyl-7-oxa-5-aza-6(4,7)-pyrido[2,3-d]pyrimidina-1(4,1)-piperidina-3(1,3)-benzenacyclotridecaphane-6^6-yl)cyclopropane-1-carbonitrile]: the IC50 is less than 0.1 µM on SOS1 (read-out: SOS1 IC50) and less than 1 µM in assay [1] (setting [2]).

Turning to `C[C@H]1Nc2ncnc3c2cc(C2(C#N)CCS(=O)(=O)CC2)c(=O)n3CCCCCCCN2CC(C2)CC(F)(F)c2cccc1c2` [Compound 210, 4-((3R)-5,5-difluoro-3-methyl-1^7-oxo-1^7,1^8-dihydro-2-aza-1(4,8)-pyrido[2,3-d]pyrimidina-7(3,1)-azetidina-4(1,3)-benzenacyclotetradecaphane-1^6-yl)tetrahydro-2H-thiopyran-4-carbonitrile 1,1-dioxide], the IC50 is less than 0.05 µM at SOS1 (setting [3]), less than 0.1 µM on SOS1 (read-out: SOS1 IC50), less than 1 µM in assay [1] (setting [2]) and less than 0.5 µM in assay [1] (setting [4]).

For `CC(C)N1CCN(c2cc3c4ncnc3n(c2=O)CCOCCCCN2CCC(CC2)CC(F)(F)c2cccc(c2F)[C@@H](C)N4)CC1` [Compound 135, (3R)-4^2,5,5-trifluoro-1^6-(4-isopropylpiperazin-1-yl)-3-methyl-1^7,1^8-dihydro-12-oxa-2-aza-1(4,8)-pyrido[2,3-d]pyrimidina-7(4,1)-piperidina-4(1,3)-benzenacyclotetradecaphan-1^7-one], the IC50 at SOS1 (read-out: SOS1 IC50) is less than 0.1 µM; in assay [1] (setting [2]), less than 1 µM.

In the case of `C[C@H]1Nc2ncnc3c2cc(C2(C#N)CC2)c(=O)n3CCCCn2cc(nn2)CN2CCC(CC2)C(F)(F)c2cccc1c2F` [Compound 126, 1-((6R,Z)-5^2,4,4-trifluoro-6-methyl-8^7-oxo-8^7,8^8-dihydro-1^1H-7-aza-8(4,8)-pyrido[2,3-d]pyrimidina-3(1,4)-piperidina-1(4,1)-triazola-5(1,3)-benzenacyclododecaphane-8^6-yl)cyclopropane-1-carbonitrile], the IC50 on SOS1 (read-out: SOS1 IC50) is less than 0.1 µM; in assay [1] (setting [2]) it was less than 1 µM.

For `C[C@H]1Nc2ncnc3c2cc(C2(C#N)CC2)c(=O)n3CCNC(=O)CCCN2CCC(CC2)C(F)(F)c2cccc1c2` [Compound 71, 1-((4R)-2,2-difluoro-4-methyl-6^7,10-dioxo-6^7,6^8-dihydro-5,9-diaza-6(4,8)-pyrido[2,3-d]pyrimidina-1(4,1)-piperidina-3(1,3)-benzenacyclotridecaphane-6^6-yl)cyclopropane-1-carbonitrile], the IC50 on SOS1 (read-out: SOS1 IC50) is less than 0.1 µM; in assay [1] (setting [2]) it was less than 1 µM.

Take `C[C@H]1Nc2ncnc3c2cc(C2(C#N)CC2)c(=O)n3CC(=O)N(C)CCCCN2CCC(CC2)C(F)(F)c2cccc1c2` [Compound 52, 1-((4R)-2,2-difluoro-4,9-dimethyl-6^7,8-dioxo-6^7,6^8-dihydro-5,9-diaza-6(4,8)-pyrido[2,3-d]pyrimidina-1(4,1)-piperidina-3(1,3)-benzenacyclotridecaphane-6^6-yl)cyclopropane-1-carbonitrile]: the IC50 at SOS1 (read-out: SOS1 IC50) was less than 0.1 µM; in assay [1] (setting [2]) it was less than 1 µM.

For the molecule `C[C@H]1Nc2ncnc3c2cc(C2(C#N)CC2)c(=O)n3CCCCCCN2CCC(CC2)CC(F)(F)c2cccc1c2F` [Compound 15, 1-((3R)-4^2,5,5-trifluoro-3-methyl-1^7-oxo-1^7,1^8-dihydro-2-aza-1(4,8)-pyrido[2,3-d]pyrimidina-7(4,1)-piperidina-4(1,3)-benzenacyclotridecaphane-1^6-yl)cyclopropane-1-carbonitrile], the IC50 at SOS1 (read-out: SOS1 IC50) is less than 0.1 µM; in assay [1] (setting [2]) it was less than 1 µM.

As for `C[C@H]1Nc2ncnc3c2cc(C2(C#N)CC2)c(=O)n3CCC/C=C/CN2CCC(CC2)CC(F)(F)c2cccc1c2F` [Compound 89, 1-((3R,E)-4^2,5,5-trifluoro-3-methyl-1^7-oxo-1^7,1^8-dihydro-2-aza-1(4,8)-pyrido[2,3-d]pyrimidina-7(4,1)-piperidina-4(1,3)-benzenacyclotridecaphan-9-en-1^6-yl)cyclopropane-1-carbonitrile], the IC50 at SOS1 (read-out: SOS1 IC50) was less than 0.1 µM; in assay [1] (setting [2]), less than 1 µM.

For the molecule `C[C@H]1Nc2ncnc3c2cc(N2CCS(=O)(=O)CC2)c(=O)n3CCCCCN2CCC(CC2)CCC(F)(F)c2cccc1c2F` [Compound 119, (3R)-1^6-(1,1-dioxidothiomorpholino)-4^2,5,5-trifluoro-3-methyl-1^7,1^8-dihydro-2-aza-1(4,8)-pyrido[2,3-d]pyrimidina-8(4,1)-piperidina-4(1,3)-benzenacyclotridecaphan-1^7-one], the values for the IC50 (at SOS1 (read-out: SOS1 IC50); in assay [1] (setting [2])) were less than 0.1 µM and less than 1 µM, respectively.

As to `Cc1nc2c3cc(C4(C#N)CC4)c(=O)n(c3n1)CCCCCN1CCC(CC1)C(F)(F)c1cccc(c1)[C@@H](C)N2` [Compound 169, 1-((4R)-2,2-difluoro-6^2,4-dimethyl-6^7-oxo-6^7,6^8-dihydro-5-aza-6(4,8)-pyrido[2,3-d]pyrimidina-1(4,1)-piperidina-3(1,3)-benzenacycloundecaphane-6^6-yl)cyclopropane-1-carbonitrile], the IC50 on SOS1 (read-out: SOS1 IC50) was less than 0.1 µM; in assay [1] (setting [2]), less than 1 µM.

Turning to `C[C@H]1Nc2ncnc3c2cc(C2CCS(=O)(=O)CC2)c(=O)n3CC(=O)NCCCCN2CCC(CC2)C(F)(F)c2cccc1c2` [Compound 60, (4R)-6^6-(1,1-dioxidotetrahydro-2H-thiopyran-4-yl)-2,2-difluoro-4-methyl-6^7,6^8-dihydro-5,9-diaza-6(4,8)-pyrido[2,3-d]pyrimidina-1(4,1)-piperidina-3(1,3)-benzenacyclotridecaphane-6^7,8-dione], the IC50 is less than 0.1 µM at SOS1 (read-out: SOS1 IC50) and less than 1 µM in assay [1] (setting [2]).
